We go through three compounds from ChEMBL document CHEMBL1131708, “Synthesis and protein kinase C binding activity of benzolactam-V7” (Bioorg Med Chem Lett, 1999).

Experiment [1] concerns the target T1, Protein kinase C alpha type (Homo sapiens, UniProt P17252). Description: Displacement of phorbol 12,13-dibutyrate (PDBU) from recombinant Protein kinase C alpha.
In experiment [2] the target is T1, Protein kinase C alpha type. Description: Displacement of phorbol 12,13-dibutyrate (PDBU) from recombinant Protein kinase C alpha (Inactive at 300 nM).

With `CC(C)[C@H]1C(=O)N[C@H](CO)c2ccccc2N1C`, the Ki in experiment [1] came to 127 µM. Still for that read-out and setting: next, `CCCCCCCCC#Cc1ccc2c(c1)[C@@H](CO)NC(=O)[C@H](C(C)C)N2C`: 21 µM.

`CC(C)[C@H]1C(=O)NC(CO)c2ccccc2N1C` (single isomer, unassigned): the Ki entry in experiment [2] is “Not Active”.

The term Ki denotes the dissociation constant of the complex between target and ligand, obtained from inhibition or displacement.
